This is an account of results in US5389661A, “Imidazole and 1,2,4-triazole derivatives with angiotensin II antagonist properties” (Warner-Lambert Company, priority 1994, dated 1995).

Broadly, the IC50 is the concentration that inhibits the measured activity by half.

For this test, the target named is T1, angiotensin II receptor (rat liver membranes) (Rattus norvegicus, UniProt P25095).
T1 construct: from tissue; host or cells: rat liver membranes
T1 sequence (P25095 1-359): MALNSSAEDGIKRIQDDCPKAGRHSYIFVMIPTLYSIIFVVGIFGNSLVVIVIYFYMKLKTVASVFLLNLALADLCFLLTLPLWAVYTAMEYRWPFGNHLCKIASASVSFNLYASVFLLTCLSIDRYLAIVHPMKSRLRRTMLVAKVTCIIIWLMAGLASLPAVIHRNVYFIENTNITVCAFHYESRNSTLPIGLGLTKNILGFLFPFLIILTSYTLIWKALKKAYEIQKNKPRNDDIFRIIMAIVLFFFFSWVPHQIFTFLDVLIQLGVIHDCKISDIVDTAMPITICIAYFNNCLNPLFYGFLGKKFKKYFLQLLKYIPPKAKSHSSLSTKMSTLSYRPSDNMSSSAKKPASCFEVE
Briefly: RBAT1, Receptor Binding of Angiotensin II: inhibition of tritiated angiotensin II binding to rat liver membranes. The note with it: in vitro. As to the method: The effectiveness of the compounds of the instant invention is determined by a test (RBAT1) entitled Receptor Binding of Angiotensin II.
`CCCc1ncc(/C=C2\C(=O)N(C(CCC)C(=O)OCC)c3cccc(C)c32)n1Cc1ccc(C(=O)OC)cc1` (racemic) [Example 4I, Ethyl (Z)-(±)-2,3,dihydro-3-[[3-[[4-(methoxycarbonylphenyl]methyl]-2-propyl-3H-imidazol-4-yl]methylene]-4-methyl-2-oxo-α-propyl-1H-indole-1-acetat] showed an IC50 of 300 nM.
`CCCCc1ncc(CC2C(=O)Nc3ccccc32)n1Cc1ccc(C(=O)OC)cc1` (racemic) [Example 10, Benzoic acid, 4-[[2-butyl-5-[(2,3-dihydro-2-oxo-1H-indol-3-yl)methyl]-1H-imidazol-1-yl]methyl]-, methyl ester, (±)] showed an IC50 of 53 nM.
Turning to `CCCc1ncc(C=C2C(=O)N(C)c3ccccc32)n1Cc1ccc(C(=O)OC)cc1` [Example 1D, Methyl 4-[[2-propyl-5-[(1,2-dihydro-1-methyl-2-oxo-3H-indol-3-ylidene)methyl]-1H-imidazol-1-yl]methyl]benzoate], the IC50 was 75 nM.
The value for `CCCc1ncc(C=C2C(=O)N(C(=O)NC)c3ccccc32)n1Cc1ccc(C(=O)OC)cc1` [Example 2B, Methyl 4-[[(2-propyl-5-[1,2-dihydro-1-(methylaminocarbonyl)-2-oxo-3H-indol-3-ylidene]methyl]-1H-imidazol-1-yl]methyl benzoate] was 610 nM; that for `CCCCc1ncc(C=C2C(=O)N(O)c3ccccc32)n1Cc1ccc(C(=O)OC)cc1` [Example 2C] was 201 nM.
Compound `CCCc1nc(-n2cccc2)c(/C=C2/C(=O)Nc3ccccc32)n1Cc1ccc(C(=O)O)cc1` [Example 2D, (E)-4-[[5-[(1,2-dihydro-2-oxo-3H-indol-3-ylideny)methyl]-2-propyl-4-(1H-pyrrol-1-yl)-1H-imidazol-1-yl]methyl]benzoic acid] yielded an IC50 of 86 nM.
Take `CCCc1ncc(/C=C2\C(=O)N(C(C)C)c3ccccc32)n1Cc1ccc(C(=O)OC)cc1` [Example 2F, Benzoic acid, 4-[[5-[[2,3-dihydro-1-(1-methylethyl)-2-oxo-1H-indol-3-ylidene]methyl]. -2-propyl-1H-imidazol-1-yl]methyl]-, methyl ester, (Z)]: the IC50 was determined as 67 nM.
The same measure for `CCCc1ncc(C=C2C(=O)N(CCC)c3ccccc32)n1Cc1ccc(C(=O)OC)cc1` [Example 2G, Methyl 4-[[5-[(1,2-dihydro-2-oxo-1-propyl-3H-indol-3-ylidenyl)methyl]-2-propyl-1H-imidazol-1-yl]methyl]benzoate]: 746 nM; for `CCCCc1ncc(C=C2C(=O)Nc3ccccc32)n1Cc1ccc(C(=O)O)cc1` [Example 3, 4-[[2-Butyl-5-[(1,12-dihydro-2-oxo-3H-indol-3-ylidene)methyl]-1H-imidazol-1-yl]methyl]benzoic acid]: 170 nM.
The value for `CCCCc1nc(Cl)c(/C=C2/C(=O)Nc3ccccc32)n1Cc1ccc(C(=O)O)cc1` [Example 3A, (E)-4-[[2-Butyl-4-chloro-5-[(1,2-dihydro-2-oxo-3H-indol-3-ylidene)]-1H-imidazol-1-yl]methyl]benzoic acid] was 140 nM; that for `CCCCc1ncc(C=C2C(=O)Nc3c(OC)cccc32)n1Cc1ccc(C(=O)O)cc1` [Example 3B, 4-[[2-Butyl-5-[(1,2-dihydro-7-methoxy-2-oxo-3H-indol-3-ylidene)methyl]-1H-imidazol-1-yl]methyl]benzoic acid] was 120 nM; that for `CCCCc1ncc(C=C2C(=O)N(CC(=O)O)c3ccccc32)n1Cc1ccc(C(=O)O)cc1` [Example 3C, 3-[[2-Butyl-1-[(4-carboxyphenyl)methyl]-1H-imidazol-5-yl]methylene]-2,3-dihydro-2-oxo-1H-indole-1-acetic acid] was 22 nM.
The same measure for `CCCCc1ncc(C=C2C(=O)N(O)c3ccccc32)n1Cc1ccc(C(=O)O)cc1` [Example 3F]: 123 nM; for `CCCCc1ncc(/C=C2/C(=O)N(CCC(=O)O)c3ccccc32)n1Cc1ccc(C(=O)O)cc1` [Example 3G, 1H-Indole-1-propanoic acid, 3-[[2-butyl-1-[(4-carboxyphenyl)methyl]-1H-imidazol-5-yl]methylene]-2,3-dihydro-2-oxo -, (E)]: 20 nM.
The compound `CCCCc1ncc(C=C2C(=O)N(CCCC)c3ccccc32)n1Cc1ccc(C(=O)O)cc1Cl` [Example 3H, 4-[[2-butyl-5-[(1-butyl-1,2-dihydro-2-oxo-3H-indol-3-ylidenyl)methyl]-1H-imidazol-1-yl]methyl]-3 chlorobenzoic acid] showed an IC50 of 52 nM.
The value for `CCCc1ncc(C=C2C(=O)N(CCC)c3ccccc32)n1Cc1ccc(C(=O)O)cc1` [Example 3I, 4-[[5-[(1,2-dihydro-2-oxo-1-propyl-3H-indol-3-ylidenyl)methyl]-2-propyl-1H-imidazol-1-yl]methyl]benzoic acid] was 140 nM; that for `CCCCN1C(=O)/C(=C/c2c(-n3cccc3)nc(CCC)n2Cc2ccc(C(=O)OC)cc2)c2ccccc21` [Example 4, Benzoic acid, 4-[[5-[(1-butyl-2,3-dihydro-2-oxo-1H-indol-3-ylidene)methyl]-2=propyl-4=(1H-pyrrol-1-yl)-1H-imidazol-1-yl]methyl]-, methyl ester, (E)] was 590 nM; that for `CCCc1nc(-n2cccc2)c(/C=C2/C(=O)N(C)c3ccccc32)n1Cc1ccc(C(=O)OC)cc1` [Example 4A, Benzoic acid, 4-[[5-[(2,3-dihydro-1-methyl-2-oxo-1H-indol-3-ylidene)methyl]-2-propyl-4-(1H-pyrrol-1-yl)-1H-imidazol-1-yl]methyl]-, methyl ester, (E)] was 640 nM.
The same measure for `CCCc1nc(-n2cccc2)c(/C=C2/C(=O)N(CC(=O)OC)c3ccccc32)n1Cc1ccc(C(=O)OC)cc1` [Example 4B, 1H-Indole-1-acetic acid, 2,3-dihydro-3-[[1-[[4-(methoxycarbonyl)phenyl]methyl]-2-propyl-4-(1H-pyrrol-1-yl)-1H-imidazol-5-yl]methylene]-2-oxo-, methyl ester, (E)]: 95 nM; for `CCCCc1ncc(C=C2C(=O)N(CCCC)c3ccccc32)n1Cc1ccc(C(=O)OC)cc1` [Example 4C, Benzoic acid, 4-[[2-butyl-5-[(1-butyl-2,3-dihydro-2-oxo-1H-indol-3-ylidene)methyl]-1H-imidazol-1-yl]methyl]-, methyl ester]: 358 nM.
As to `CCCCc1ncc(/C=C2/C(=O)N(Cc3ccc(Cl)cc3)c3ccccc32)n1Cc1ccc(C(=O)O)cc1` [Example 4F, Benzoic acid, 4-[[2-butyl-5-[[1-[(4-chlorophenyl)methyl]-2,3-dihydro-2-oxo-1H-indol-3-ylidene]methyl]-1H-imidazol-1-yl]methyl]-, (E)], the IC50 stood at 256 nM.
As to `CCCCc1ncc(C=C2C(=O)N(OCC(=O)OC)c3ccccc32)n1Cc1ccc(C(=O)OC)cc1` [Example 4G], the IC50 came to 64 nM.
The same measure for `CCCCc1ncc(C=C2C(=O)N(CC#N)c3ccccc32)n1Cc1ccc(C(=O)OC)cc1` [Example 4H, Benzoic acid, 4-[[2-butyl-5-[[1-(cyanomethyl)-2,3-dihydro-2-oxo-1H-indol-3-ylidene]methyl]-1H-imidazol-1-yl]methyl]-, methyl ester, (E)]: 226 nM; for `CCCc1ncc(/C=C2\C(=O)N(CC(=O)OC)c3cccc(C)c32)n1Cc1ccc(C(=O)OC)cc1` [Example 4J, Methyl (Z)-2,3-dihydro-3-[[3-[[4-methoxycarbonylphenyl]methyl]-2-propyl-3H-imidazol-4-yl]methylene]-4-methyl-2-oxo-1H-indole-1-acetate]: 686 nM.
The value for `CCCCc1ncc(C=C2C(=O)N(CCCC)c3ccccc32)n1Cc1ccc(C(=O)OC)cc1Cl` [Example 4K, Methyl 4-[[2-butyl-5-[(1-butyl-1,2-dihydro-2-oxo-3H-indol-3-yliden)methyl]-1H-imidazolyl]methyl]-3-chlorobenzoate] was 110 nM.
The value for `CCCCc1ncc(C=C2C(=O)N(Cc3nn[nH]n3)c3ccccc32)n1Cc1ccc(C(=O)OC)cc1` [Example 5, Benzoic acid, 4-[[2-butyl-5-[[2,3-dihydro-2-oxo-1-(1H-tetrazol-5-ylmethyl)-1H-indol-3-ylidene]methyl]-1H-imidazol-1-yl]methyl]-, methyl ester, (E)] was 94 nM; that for `CCCCc1ncc(C=C2C(=O)N(CC(=O)OC)c3ccccc32)n1Cc1ccc(-c2nn[nH]n2)cc1` [Example 6, 1H-Indole-1-acetic acid, 3-[[2-butyl-1-[[4-(1H-tetrazol-5-yl)phenyl]methyl]-1H-imidazol-5yl]methylene]-2,3-dihydro-2-oxo-, methyl ester] was 25 nM.
Regarding `CCCCc1ncc(C=C2C(=O)N(CC(=O)OCC)c3ccccc32)n1Cc1ccc(-c2nnn[nH]2)cc1` [Example 6A, 1H-Indole-1-acetic acid, 3-[[2-butyl-1-[[4-(1H-tetrazol-5-yl)phenyl]methyl]-1H-imidazol-5yl]methylene]-2,3-dihydro-2-oxo-, ethyl ester], the IC50 is 12 nM.
The value for `CCCCc1ncc(C=C2C(=O)N(CC(=O)O)c3ccccc32)n1Cc1ccc(-c2nnn[nH]2)cc1` [Example 7, 3-[[2-butyl-3-[[4-(1H-tetrazol-5-yl)phenyl]methyl]-3H-imidazol-4-yl]methylene]-2,3-dihydro-2-oxo-1H-indole-1-acetic acid] was 5.7 nM.
Consider `CCCc1ncc(/C=C2\C(=O)N(CC(=O)OC)C(=O)c3ccccc32)n1Cc1ccc(C(=O)OC)cc1` [Example 8, 2(1H)-Isoquinolineacetic acid, 3,4-dihydro-4-[[1-[[4-(methoxycarbonyl)phenyl]methyl]-2-propyl-1H-imidazol-5-yl]methylene]-1,3-dioxo-, methyl ester, (Z)], for which the IC50 amounted to 47 nM.
